Measured values taken from ChEMBL document CHEMBL2203257 (Bioorg Med Chem Lett, 2012).

Assays:
[1] = target: Wee1-like protein kinase (Homo sapiens, UniProt P30291); assay: Inhibition of WEE1
[2] = target: Serine/threonine-protein kinase 17B (Homo sapiens, UniProt O94768); assay: Inhibition of STK17B
[3] = Cmax in mouse at 3 mg/kg, po BID; format: ADME, organism-based; parameters: dose 3 mg/kg, route oral; details: in vivo
[4] = target: Epithelial discoidin domain-containing receptor 1 (Homo sapiens, UniProt Q08345); assay: Inhibition of DDR1
[5] = target: Ephrin type-B receptor 2 (Homo sapiens, UniProt P29323); assay: Inhibition of EPHB2
[6] = target: Tyrosine-protein kinase Yes (Homo sapiens, UniProt P07947); assay: Inhibition of YES1
[7] = target: Calcium/calmodulin-dependent protein kinase kinase 2 (Homo sapiens, UniProt Q96RR4); assay: Inhibition of CAMKK2
[8] = AUC in rat […] at 5 mg/kg, po; 1 mg/kg, iv; format: ADME, organism-based
[9] = target: Aurora kinase B (Homo sapiens, UniProt Q96GD4); assay: Inhibition of AURKB
Aurora kinase B, sequence (Q96GD4 whole entry): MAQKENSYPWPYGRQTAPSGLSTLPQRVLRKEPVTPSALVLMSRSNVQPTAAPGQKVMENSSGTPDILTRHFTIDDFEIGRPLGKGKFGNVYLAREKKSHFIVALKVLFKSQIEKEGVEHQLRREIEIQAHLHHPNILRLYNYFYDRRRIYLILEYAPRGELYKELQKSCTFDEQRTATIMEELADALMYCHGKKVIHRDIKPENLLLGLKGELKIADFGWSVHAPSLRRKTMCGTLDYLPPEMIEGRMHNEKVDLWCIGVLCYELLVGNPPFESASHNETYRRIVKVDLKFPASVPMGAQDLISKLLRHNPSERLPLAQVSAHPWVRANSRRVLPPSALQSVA

[10] = target: Cytochrome P450 3A4 (Homo sapiens, UniProt P08684); assay: Inhibition of CYP3A4 at >20 uM; format: ADME
[11] = target: Receptor-interacting serine/threonine-protein kinase 3 (Homo sapiens, UniProt Q9Y572); assay: Inhibition of RIPK3
[12] = target: Serine/threonine-protein kinase TAO3 (Homo sapiens, UniProt Q9H2K8); assay: Inhibition of TAOK3
[13] = target: Tyrosine-protein kinase Fes/Fps (Homo sapiens, UniProt P07332); assay: Inhibition of FES
[14] = Half life in cynomolgus monkey; format: ADME, organism-based, Macaca fascicularis; details: in vivo
[15] = Clearance in cynomolgus monkey; format: ADME, organism-based, Macaca fascicularis; details: in vivo
[16] = target: Phosphatidylinositol 4-kinase alpha (Homo sapiens, UniProt P42356); assay: Inhibition of PIK4Ca
Phosphatidylinositol 4-kinase alpha, sequence (P42356 whole entry): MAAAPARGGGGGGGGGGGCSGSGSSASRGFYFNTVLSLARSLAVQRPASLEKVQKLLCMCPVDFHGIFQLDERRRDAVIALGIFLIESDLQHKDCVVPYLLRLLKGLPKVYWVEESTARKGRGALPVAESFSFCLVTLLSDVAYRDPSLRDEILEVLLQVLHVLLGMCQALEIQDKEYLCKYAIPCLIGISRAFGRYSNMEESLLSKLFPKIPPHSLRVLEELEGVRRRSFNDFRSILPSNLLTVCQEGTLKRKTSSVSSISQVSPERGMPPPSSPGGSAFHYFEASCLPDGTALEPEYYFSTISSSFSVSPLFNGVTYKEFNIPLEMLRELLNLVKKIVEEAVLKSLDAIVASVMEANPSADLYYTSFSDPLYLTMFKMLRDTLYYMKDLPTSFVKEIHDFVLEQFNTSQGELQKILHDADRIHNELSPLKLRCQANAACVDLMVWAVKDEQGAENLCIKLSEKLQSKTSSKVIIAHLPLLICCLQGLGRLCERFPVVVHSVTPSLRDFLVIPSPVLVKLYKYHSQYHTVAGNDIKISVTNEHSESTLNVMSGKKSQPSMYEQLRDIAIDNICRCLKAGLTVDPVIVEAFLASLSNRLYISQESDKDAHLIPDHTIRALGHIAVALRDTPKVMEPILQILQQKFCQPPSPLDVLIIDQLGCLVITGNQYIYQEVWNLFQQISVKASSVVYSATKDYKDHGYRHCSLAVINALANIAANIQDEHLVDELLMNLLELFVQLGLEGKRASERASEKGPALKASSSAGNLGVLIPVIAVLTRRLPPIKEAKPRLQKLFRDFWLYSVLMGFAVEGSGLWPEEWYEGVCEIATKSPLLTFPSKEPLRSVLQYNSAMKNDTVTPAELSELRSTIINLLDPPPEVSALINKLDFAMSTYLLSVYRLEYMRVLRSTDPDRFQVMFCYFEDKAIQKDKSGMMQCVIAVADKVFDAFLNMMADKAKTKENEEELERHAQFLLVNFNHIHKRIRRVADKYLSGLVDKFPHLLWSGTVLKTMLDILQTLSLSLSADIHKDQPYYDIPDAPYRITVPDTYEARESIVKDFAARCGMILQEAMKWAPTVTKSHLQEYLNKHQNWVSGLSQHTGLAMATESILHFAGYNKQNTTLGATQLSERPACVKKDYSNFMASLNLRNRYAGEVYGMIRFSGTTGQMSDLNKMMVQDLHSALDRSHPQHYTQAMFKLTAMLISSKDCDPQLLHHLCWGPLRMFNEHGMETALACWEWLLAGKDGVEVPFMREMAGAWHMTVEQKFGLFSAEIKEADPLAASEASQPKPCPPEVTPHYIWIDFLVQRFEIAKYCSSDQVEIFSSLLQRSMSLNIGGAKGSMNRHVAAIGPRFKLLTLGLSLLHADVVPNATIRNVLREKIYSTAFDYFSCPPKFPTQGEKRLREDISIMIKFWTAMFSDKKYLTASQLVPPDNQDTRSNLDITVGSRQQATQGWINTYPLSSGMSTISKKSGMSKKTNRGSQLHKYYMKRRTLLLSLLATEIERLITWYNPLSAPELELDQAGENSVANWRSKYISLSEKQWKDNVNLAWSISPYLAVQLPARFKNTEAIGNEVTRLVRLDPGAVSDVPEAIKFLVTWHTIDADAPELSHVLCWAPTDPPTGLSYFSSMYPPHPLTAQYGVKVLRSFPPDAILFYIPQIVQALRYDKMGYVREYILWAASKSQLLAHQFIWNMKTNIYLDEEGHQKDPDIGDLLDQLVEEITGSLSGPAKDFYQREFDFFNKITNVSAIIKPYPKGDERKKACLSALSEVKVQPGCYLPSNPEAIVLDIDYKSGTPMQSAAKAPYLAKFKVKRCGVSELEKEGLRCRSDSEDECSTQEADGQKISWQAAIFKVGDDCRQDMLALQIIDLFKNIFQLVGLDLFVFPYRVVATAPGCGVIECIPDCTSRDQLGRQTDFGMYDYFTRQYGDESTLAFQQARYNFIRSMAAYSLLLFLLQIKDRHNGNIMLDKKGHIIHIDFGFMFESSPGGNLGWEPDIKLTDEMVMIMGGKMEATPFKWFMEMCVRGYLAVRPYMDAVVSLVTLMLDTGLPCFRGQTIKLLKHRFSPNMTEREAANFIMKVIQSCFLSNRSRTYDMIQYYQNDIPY

[17] = target: Cytochrome P450 2D6 (Homo sapiens, UniProt P10635); assay: Inhibition of CYP2D6 at >20 uM; format: ADME
[18] = target: Mitogen-activated protein kinase kinase kinase kinase 3 (Homo sapiens, UniProt Q8IVH8); assay: Inhibition of MAP4K3
[19] = target: Mitogen-activated protein kinase kinase kinase 4 (Homo sapiens, UniProt Q9Y6R4); assay: Inhibition of MAP3K4
[20] = target: eIF-2-alpha kinase GCN2 (Homo sapiens, UniProt Q9P2K8); assay: Inhibition of EIF2AK4
[21] = target: Serine/threonine-protein kinase RIO2 (Homo sapiens, UniProt Q9BVS4); assay: Inhibition of RIOK2
[22] = target: Cyclin-G-associated kinase (Homo sapiens, UniProt O14976); assay: Inhibition of GAK
[23] = target: Tyrosine-protein kinase Fyn (Homo sapiens, UniProt P06241); assay: Inhibition of FYN
[24] = target: Ephrin type-B receptor 6 (Homo sapiens, UniProt O15197); assay: Inhibition of EPHB6
[25] = target: Maternal embryonic leucine zipper kinase (Homo sapiens, UniProt Q14680); assay: Inhibition of MELK
[26] = target: Protein kinase C theta type (Homo sapiens, UniProt Q04759); assay: Inhibition of PRKCQ
[27] = target: Phosphatidylinositol 4,5-bisphosphate 3-kinase catalytic subunit gamma isoform (Homo sapiens, UniProt P48736); assay: Inhibition of PIK3Cg
[28] = target: Ribosomal protein S6 kinase alpha-4 (Homo sapiens, UniProt O75676); assay: Inhibition of RPS6KA4
[29] = target: Macrophage-stimulating protein receptor (Homo sapiens, UniProt Q04912); assay: Inhibition of MST1R
Macrophage-stimulating protein receptor, sequence (Q04912 25-304 limits assumed): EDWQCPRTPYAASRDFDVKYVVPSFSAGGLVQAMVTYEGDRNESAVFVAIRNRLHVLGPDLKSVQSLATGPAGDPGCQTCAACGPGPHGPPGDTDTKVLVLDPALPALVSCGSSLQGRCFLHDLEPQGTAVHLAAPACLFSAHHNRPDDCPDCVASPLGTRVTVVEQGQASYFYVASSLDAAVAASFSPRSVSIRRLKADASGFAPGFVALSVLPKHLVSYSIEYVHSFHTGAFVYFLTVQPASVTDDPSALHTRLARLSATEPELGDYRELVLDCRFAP
Macrophage-stimulating protein receptor, sequence (Q04912 310-1400 limits assumed): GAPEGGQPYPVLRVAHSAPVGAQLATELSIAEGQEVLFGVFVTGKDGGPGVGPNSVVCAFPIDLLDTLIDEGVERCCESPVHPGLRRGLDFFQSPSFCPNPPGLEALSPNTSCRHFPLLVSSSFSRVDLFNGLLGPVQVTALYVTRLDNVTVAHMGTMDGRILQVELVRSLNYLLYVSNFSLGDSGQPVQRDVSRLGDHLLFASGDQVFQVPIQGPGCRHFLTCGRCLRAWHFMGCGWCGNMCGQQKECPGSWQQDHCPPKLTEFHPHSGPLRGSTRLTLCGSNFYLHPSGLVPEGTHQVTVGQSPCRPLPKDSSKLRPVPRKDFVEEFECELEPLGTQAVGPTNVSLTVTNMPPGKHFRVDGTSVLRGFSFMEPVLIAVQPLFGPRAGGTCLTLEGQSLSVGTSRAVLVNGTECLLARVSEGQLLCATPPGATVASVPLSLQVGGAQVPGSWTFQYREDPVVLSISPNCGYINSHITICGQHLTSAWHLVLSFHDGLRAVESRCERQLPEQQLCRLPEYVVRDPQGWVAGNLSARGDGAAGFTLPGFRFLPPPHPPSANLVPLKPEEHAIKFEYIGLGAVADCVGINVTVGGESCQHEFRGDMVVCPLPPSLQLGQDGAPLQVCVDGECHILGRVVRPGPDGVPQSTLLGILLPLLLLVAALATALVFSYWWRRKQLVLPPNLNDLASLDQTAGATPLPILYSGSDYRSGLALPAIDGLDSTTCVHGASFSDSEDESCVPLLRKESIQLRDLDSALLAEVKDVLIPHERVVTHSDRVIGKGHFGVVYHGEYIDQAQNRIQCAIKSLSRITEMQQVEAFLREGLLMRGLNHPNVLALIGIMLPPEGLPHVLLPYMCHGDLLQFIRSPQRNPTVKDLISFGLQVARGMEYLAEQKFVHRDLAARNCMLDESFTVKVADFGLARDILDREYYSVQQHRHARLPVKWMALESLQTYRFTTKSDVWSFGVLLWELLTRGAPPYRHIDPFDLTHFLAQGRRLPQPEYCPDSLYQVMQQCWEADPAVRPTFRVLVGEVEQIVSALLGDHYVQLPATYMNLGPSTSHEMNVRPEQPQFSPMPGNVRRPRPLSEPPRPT

[30] = target: Bromodomain-containing protein 2 (Homo sapiens, UniProt P25440); assay: Inhibition of BRD2
[31] = target: 3-phosphoinositide-dependent protein kinase 1 (Homo sapiens, UniProt O15530); assay: Inhibition of PDPK1
3-phosphoinositide-dependent protein kinase 1, sequence (O15530 whole entry): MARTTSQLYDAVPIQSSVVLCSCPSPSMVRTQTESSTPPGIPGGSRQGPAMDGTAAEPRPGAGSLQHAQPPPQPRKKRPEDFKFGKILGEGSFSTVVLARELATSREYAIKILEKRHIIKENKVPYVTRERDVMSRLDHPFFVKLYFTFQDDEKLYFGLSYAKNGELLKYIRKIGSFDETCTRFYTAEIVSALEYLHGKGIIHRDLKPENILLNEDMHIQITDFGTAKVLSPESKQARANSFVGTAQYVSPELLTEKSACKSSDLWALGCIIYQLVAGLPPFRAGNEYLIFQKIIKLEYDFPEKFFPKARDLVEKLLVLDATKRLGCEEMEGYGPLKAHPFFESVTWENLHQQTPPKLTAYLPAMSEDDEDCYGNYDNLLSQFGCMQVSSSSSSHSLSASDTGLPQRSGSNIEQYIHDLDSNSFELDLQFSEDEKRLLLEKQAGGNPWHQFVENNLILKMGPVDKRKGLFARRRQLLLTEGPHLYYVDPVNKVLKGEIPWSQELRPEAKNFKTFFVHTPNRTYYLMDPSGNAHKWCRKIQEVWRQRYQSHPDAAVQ

[32] = target: Calcium/calmodulin-dependent protein kinase type IV (Homo sapiens, UniProt Q16566); assay: Inhibition of CAMK4
[33] = test system: Mus musculus; assay: Antiarthritic activity against collagen-induced arthritis mouse model assessed as inhibition of disease progression at 10 mg/kg, po BID for 14 days; format: functional; details: 336 h

Serine/threonine-protein kinase 17B, sequence (O94768 whole entry): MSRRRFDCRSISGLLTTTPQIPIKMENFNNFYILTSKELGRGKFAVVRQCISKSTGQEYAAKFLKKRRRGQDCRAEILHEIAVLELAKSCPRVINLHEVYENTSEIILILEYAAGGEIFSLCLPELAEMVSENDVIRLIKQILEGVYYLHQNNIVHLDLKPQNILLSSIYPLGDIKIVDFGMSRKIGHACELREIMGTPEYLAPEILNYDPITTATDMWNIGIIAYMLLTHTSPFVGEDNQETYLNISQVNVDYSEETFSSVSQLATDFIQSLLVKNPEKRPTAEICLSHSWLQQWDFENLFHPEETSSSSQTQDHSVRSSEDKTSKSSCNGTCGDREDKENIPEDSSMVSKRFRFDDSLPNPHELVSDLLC

SMILES: CC(C)(C)NS(=O)(=O)c1cncc(-c2ccn3nc(N)nc3c2)c1
- IC50 [1]: > 10 µM
- IC50 [2]: > 10 µM
- Cmax [3]: 2.5 µM
- IC50 [4]: > 10 µM
- IC50 [5]: > 10 µM
- IC50 [6]: > 10 µM
- IC50 [7]: > 10 µM
- AUC [8]: 15.3 µM·h
- IC50 [9]: > 10 µM
- inhibition (INH) [10]: Active
- IC50 [11]: > 10 µM
- IC50 [12]: > 10 µM
- IC50 [13]: > 10 µM
- half-life [14]: 6.1 h
- clearance [15]: 0.096 L/h/kg
- IC50 [16]: > 5.89 µM
- inhibition (INH) [17]: Active
- IC50 [18]: > 10 µM
- IC50 [19]: > 10 µM
- IC50 [20]: > 10 µM
- IC50 [21]: > 5.89 µM
- IC50 [22]: > 10 µM
- IC50 [23]: > 10 µM
- IC50 [24]: > 10 µM
- IC50 [25]: > 10 µM
- IC50 [26]: > 10 µM
- IC50 [27]: 0.0245 µM
- IC50 [28]: > 10 µM
- IC50 [29]: > 10 µM
- IC50 [30]: > 10 µM
- IC50 [31]: > 10 µM
- IC50 [32]: > 10 µM
- inhibition in vivo at 10 mg/kg [33]: 46%
